These results are taken from article PMC10439028, “SGLT5 is the renal transporter for 1,5-anhydroglucitol, a major player in two rare forms of neutropenia” (Cellular and Molecular Life Sciences: CMLS, 2023).

This assay has as its target T1, hSGLT5 Ala522Val (Homo sapiens, UniProt A0PJK1, A522V).
T1 construct: pUB83-hSGLT5-iso2 as well as the various SGLT5 mutants obtained were used to transduce HEK293T cells; expressed in transfected cells; host or cells: HEK293T, lentiviral transduction (pUB83)
T1 sequence (A0PJK1 1-596 A522V): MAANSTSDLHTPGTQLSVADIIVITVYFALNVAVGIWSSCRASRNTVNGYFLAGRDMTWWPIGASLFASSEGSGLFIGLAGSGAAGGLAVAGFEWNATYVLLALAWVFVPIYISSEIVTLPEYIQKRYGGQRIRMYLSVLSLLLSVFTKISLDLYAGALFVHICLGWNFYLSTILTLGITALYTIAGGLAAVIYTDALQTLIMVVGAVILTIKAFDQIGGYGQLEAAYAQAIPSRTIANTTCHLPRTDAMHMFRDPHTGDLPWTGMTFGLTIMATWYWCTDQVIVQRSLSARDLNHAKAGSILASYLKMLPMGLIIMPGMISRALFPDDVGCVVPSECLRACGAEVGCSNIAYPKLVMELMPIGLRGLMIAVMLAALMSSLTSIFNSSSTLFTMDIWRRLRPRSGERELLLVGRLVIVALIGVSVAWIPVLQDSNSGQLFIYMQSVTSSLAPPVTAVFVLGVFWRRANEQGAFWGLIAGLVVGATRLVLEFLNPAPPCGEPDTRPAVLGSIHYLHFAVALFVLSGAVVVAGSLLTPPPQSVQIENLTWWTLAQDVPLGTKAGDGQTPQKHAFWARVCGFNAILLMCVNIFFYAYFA
The experiment in a line: 1,5-AG uptake in HEK293T cells overexpressing SGLT5 variant Ala522Val. The assay is classed as cell-based. Here is the method: For a typical transporter experiment we proceeded as follows. […] To minimize cell loss during the various washing steps in the radioactive uptake experiments, the wells where the cells were seeded were previously coated with poly- D-lysine, which improved their adhesion to the plastic surface of the wells. For this, each well of the 24-well plates was treated with 200 µl of a 0.01% poly-L-lysine solution for 10 min, washed 3 times with 1 ml of sterilized water and left to dry for 2 h. Only then could the 24-well plates be seeded with the appropriate cell lines and cultured overnight at 37 °C in 5% CO2.
On day two, the radioactive uptake assay could be performed. The cell culture media was removed by aspiration and cells were incubated for 20 min at 37 °C and 5% CO2 with a basal medium (10 mM HEPES, pH 7.4, 1 mM CaCl2, 1 mM MgCl2, 2 mM KCl) containing 140 mM choline chloride to deplete intracellular Na^2+ ions. […]
Once the uptake medium was added to the cells, the plates were incubated at 37 °C in 5% CO2 during the required time. […] In each experiment, the transport activities were calculated after subtracting a “blank” value, corresponding to the radioactivity in the appropriate control cells (HEK293T cells that were stably or transiently transfected with one of the parent plasmids pEF6/MycHisA, pEF6HisB, pUB82 or pUB83 with no inserted cDNA) that were analyzed in parallel. […]

On to `OC[C@H]1OC[C@H](O)[C@@H](O)[C@@H]1O` [1,5-AG, 1,5-anhydroglucitol], for which the Vmax (variant Ala522Val) amounted to 18.3 ± 0.5 pmol/min/10^5cells. Also, the “effect of mutation on ability of SGLT5 to transport 1,5-AG” value (variant Ala522Val (control)) is “no effect”.
